Assays:
[1] = test system: H69 parental (H69/P) human small cell lung carcinoma cell line; assay: Cytotoxicity, H69 parental cell line (AlamarBlue); format: cell-based; conditions: concentration required to give 50% cell kill, 5–6 days incubation
Experimental: (§1) The cytotoxicity of compounds of formula (I) was measured using the H69 parental (H69/P) human small cell lung carcinoma cell line and the drug resistant human small cell lung carcinoma cell line H69/LX4 which overexpresses P-glycoprotein (Pgp). The cytotoxicity, as measured by the IC50 (concentration required to give 50% cell kill) in the H69/LX4 cell line divided by the cytotoxicity in the H69/P cell line gives an indication of the degree to which a compound is affected by Pgp-dependent MDR and is termed the resistance factor (Rf) of the compound.
(§2) H69/P and H69/LX4 cells were pipetted into 96-well tissue culture plates and then allowed to incubate at 37° C. for 4 h. […] The plates were incubated for 5–6 days before adding AlamarBlue to each well and returning the plates to the incubator for 5–8 h to allow colour development. The cell numbers in the plates at the end of this period were directly proportional to the absorbance measured at a wavelength of 570 nm (reference wavelength 600 nm).

[2] = test system: drug resistant human small cell lung carcinoma cell line H69/LX4 which overexpresses P-glycoprotein (Pgp); assay: Cytotoxicity, drug resistant H69/LX4 cell line (AlamarBlue); format: cell-based; conditions: for IC50: concentration required to give 50% cell kill, 5–6 days incubation; for Rf (resistance factor): IC50 in H69/LX4 divided by IC50 in H69/P, Pgp-dependent MDR
Experimental: as §1, §2

[3] = test system: COR-L23 parental (COR-L23/P) human non-small cell lung carcinoma cell line; assay: Cytotoxicity, COR-L23 parental cell line (SRB assay); format: cell-based; conditions: concentration required to give 50% cell kill, 5–6 days incubation
Experimental: (§3) The cytotoxicity of the compounds described herein was also measured using the COR-L23 parental (COR-L23/P) human non-small cell lung carcinoma cell line and also the drug resistant human non-small cell lung carcinoma cell line COR-L23/R which overexpresses multidrug resistance associated protein (MRP). The cytotoxicity, as measured by the IC50 (concentration required to give 50% cell kill) in the L23/R cell line divided by the cytotoxicity in the L23/P cell line gives an indication of the degree to which a compound may be affected by MRP-dependant MDR and is termed the resistance factor (Rf) of the compound.
(§4) L23/P and L23/R cells were pipetted into 96-well tissue culture plates and then allowed to incubate at 37° C. for 4 h. […] The plates were incubated for 5–6 days before proliferation was assessed using the sulphurhodamine B (SRB) assay as described by Skehan et al, J Natl Cancer Inst 1990, 82, pp 1107–1112.

[4] = Cytotoxicity, drug resistant COR-L23/R cell line (SRB assay); format: cell-based, human; conditions: Homo sapiens, COR-L23/R; concentration required to give 50% cell kill; 5–6 days incubation
Experimental: as §3, §4

[5] = test system: drug resistant human non-small cell lung carcinoma cell line COR-L23/R which overexpresses multidrug resistance associated protein (MRP); assay: as above; format: cell-based; conditions: for Rf (resistance factor): IC50 in L23/R divided by IC50 in L23/P, MRP-dependant MDR; for IC50: concentration required to give 50% cell kill, 5–6 days incubation
Experimental: as §3, §4

[6] = test system: Jurkat human leukaemia cell line (JLC); assay: Cytotoxicity, Jurkat leukaemia cell line JLC; format: cell-based; conditions: concentration required to give 50% cell kill
Experimental: (§5) The cytotoxicity of the compounds described herein was also measured using the Jurkat human leukaemia cell line (JLC) and also the amsacrine-resistant Jurkat human leukaemia cell line (JLA) and the doxorubicin-resistant Jurkat human leukaemia cell line (JLD). The cytotoxicity, as measured by the IC50 (concentration required to give 50% cell kill) in the JLA or JLD cell line divided by the cytotoxicity in the JLC cell line gives an indication of the degree to which a compound may be affected by atypical drug resistance and is termed the resistance factor (Rf) of the compound. The method used has been described previously (Finlay et al, Eur J. Cancer 32A, 708–714, 1996). Compounds were active in the range 1 nM to 5 μM.

[7] = test system: amsacrine-resistant Jurkat human leukaemia cell line (JLA); assay: Cytotoxicity, amsacrine-resistant Jurkat cell line JLA; format: cell-based; conditions: for IC50: concentration required to give 50% cell kill; for Rf (JLA/JLC): IC50 in JLA divided by IC50 in JLC, atypical drug resistance
Experimental: as §5

[8] = test system: doxorubicin-resistant Jurkat human leukaemia cell line (JLD); assay: Cytotoxicity, doxorubicin-resistant Jurkat cell line JLD; format: cell-based; conditions: for IC50: concentration required to give 50% cell kill; for Rf (JLD/JLC): IC50 in JLD divided by IC50 in JLC, atypical drug resistance
Experimental: as §5

topoisomerase I = target: T1, topoisomerase I (Homo sapiens, UniProt P11387); assay: Stabilisation of cleavable complexes, topoisomerase I; format: biochemical; conditions: range where an increase in cleavable complexes was observed relative to controls in the absence of drug
T1 sequence (P11387 1-765): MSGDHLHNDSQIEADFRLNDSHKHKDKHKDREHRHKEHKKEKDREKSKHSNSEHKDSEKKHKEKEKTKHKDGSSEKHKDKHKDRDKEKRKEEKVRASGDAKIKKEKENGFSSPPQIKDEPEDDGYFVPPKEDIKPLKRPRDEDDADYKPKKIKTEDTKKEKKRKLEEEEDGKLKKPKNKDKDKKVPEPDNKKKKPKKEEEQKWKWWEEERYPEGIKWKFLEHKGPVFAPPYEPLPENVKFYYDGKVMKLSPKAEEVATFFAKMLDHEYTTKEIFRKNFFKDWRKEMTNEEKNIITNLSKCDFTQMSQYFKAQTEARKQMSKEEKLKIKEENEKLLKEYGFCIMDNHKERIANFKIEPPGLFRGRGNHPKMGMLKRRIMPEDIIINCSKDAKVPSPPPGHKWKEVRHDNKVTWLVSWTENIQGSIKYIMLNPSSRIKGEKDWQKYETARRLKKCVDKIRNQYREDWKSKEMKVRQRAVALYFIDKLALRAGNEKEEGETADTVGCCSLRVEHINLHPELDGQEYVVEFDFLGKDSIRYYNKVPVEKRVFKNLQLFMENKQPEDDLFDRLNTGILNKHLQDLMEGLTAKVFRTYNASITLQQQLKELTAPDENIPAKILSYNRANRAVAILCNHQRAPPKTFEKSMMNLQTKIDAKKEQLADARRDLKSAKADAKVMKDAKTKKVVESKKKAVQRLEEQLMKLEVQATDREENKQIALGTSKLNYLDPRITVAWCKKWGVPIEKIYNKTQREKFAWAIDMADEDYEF
Description: (§6) Compounds were also studied for their ability to stabilize cleavable complexes in the presence of either topoisomerase I or II essentially as described previously (Finlay et al, Eur J. Cancer 32A, 708–714, 1996). Presence of cleavable complexes was indicated by an increase in the number and intensity of bands observed after electrophoresis and autoradiography. The results are expressed as the effective concentration range where an increase in cleavable complexes was observed relative to controls in the absence of drug.

topoisomerase II = assay: Stabilisation of cleavable complexes, topoisomerase II; format: biochemical; conditions: range where an increase in cleavable complexes was observed relative to controls in the absence of drug
Description: as §6

Effective concentration range, Topoisomerase I (topoisomerase I) [µM]	Effective concentration range, Topoisomerase II (topoisomerase II) [µM]	Structure (SMILES)	IC50 ([1]; Homo sapiens) [nM]	IC50 ([2]; Homo sapiens) [nM]	Rf (resistance factor) [2]	IC50 ([3]; Homo sapiens, COR-L23) [nM]	IC50 [4] [nM]	Rf (resistance factor) [5]	IC50 ([6]; Homo sapiens, Jurkat) [nM]	IC50 ([7]; Homo sapiens, Jurkat) [nM]	Rf (JLA/JLC) [7]	IC50 ([8]; Homo sapiens, Jurkat) [nM]	Rf (JLD/JLC) [8]	IC50 [1] [nM]	IC50 [2] [nM]	IC50 [3] [nM]	IC50 [5] [nM]	IC50 [6] [nM]	IC50 [7] [nM]	IC50 [8] [nM]
0.1 to 3.0	0.1 to 3.0	COc1cccc2c1ccc1nc3cccc(C(=O)NCCN(C)C)c3nc12 [Compound 3, 4-Methoxy-benzo[a]phenazine-11-carboxylic acid (2-dimethylamino-ethyl)-amide]	35	49	1.4	14.4	19.9	1.4	27	21.6	0.8	24.3	0.9							
0.03 to 1.0	0.03 to 1.0	COc1cccc2c1ccc1nc3cccc(C(=O)NC(C)CN(C)C)c3nc12 (stereo not drawn) [Compound 35, 4-Methoxy-benzo[a]phenazine-11-carboxylic acid (2-dimethylamino-1-methyl-ethyl)-amide]							28	19	0.7	25	0.9							
0.03 to 1.0	0.03 to 1.0	COc1cccc2c1ccc1nc3cccc(C(=O)N[C@H](C)CN(C)C)c3nc12 [Compound 78, 4-Methoxy-benzo[a]phenazine-11-carboxylic acid (2-dimethylamino-1-(R)-methyl-ethyl)-amide]	24	31	1.3	7.6	8.9	1.2	21	14	0.7	17	0.8							
0.03 to 1.0	0.03 to 1.0	COc1cccc2c1ccc1nc3cccc(C(=O)NC(CN(C)C)C(C)O)c3nc12 (stereo not drawn) [Compound 84, 4-Methoxy-benzo[a]phenazine-11-carboxylic acid (1-dimethylaminomethyl-2-hydroxy-propyl)-amide]	19	19	1				4.4	9.8	2.2	7.2	1.6							

Structure (SMILES)	Effective concentration range, Topoisomerase I (topoisomerase I) [µM]	Effective concentration range, Topoisomerase II (topoisomerase II) [µM]	IC50 ([1]; Homo sapiens) [nM]	IC50 ([2]; Homo sapiens) [nM]	Rf (resistance factor) [2]	IC50 ([3]; Homo sapiens, COR-L23) [nM]	IC50 [4] [nM]	Rf (resistance factor) [5]	IC50 ([6]; Homo sapiens, Jurkat) [nM]	IC50 ([7]; Homo sapiens, Jurkat) [nM]	Rf (JLA/JLC) [7]	IC50 ([8]; Homo sapiens, Jurkat) [nM]	Rf (JLD/JLC) [8]	IC50 [1] [nM]	IC50 [2] [nM]	IC50 [3] [nM]	IC50 [5] [nM]	IC50 [6] [nM]	IC50 [7] [nM]	IC50 [8] [nM]
Br.CN(C)CCNC(=O)c1cccc2nc3ccc4c(O)cccc4c3nc12 [Compound 4, 4-Hydroxy-benzo[a]phenazine-11-carboxylic acid (2-dimethylamino-ethyl)-amide: hydrobromide salt]	0.1 to 3.0	0.1 to 3.0			1.4			1.1			1.4		1.2	35	48	14.7	16.8	19	26.6	22.8
CN(C)CCNc1nc2cc(O)ccc2c2c1C(=O)c1ccccc1-2 [TAS-103, reference compound]	0.3 to 10.0	0.3 to 10.0			1.1			1.3			55.9		71.1	21	22	16.3	22	5.4	302	384

From patent US7132419B2, “Pharmaceutical compounds” (Xenova Limited, priority 2000, dated 2006)
